Patent US9439845B2, “Glycyrrhetinimidyl hydroxyproline alkyl esters and protected derivatives thereof” (REVLON CONSUMER PRODUCTS CORPORATION, priority 2013, dated 2016)

Tests used:
Assay type in all cases: cell-based
[1] = tested on: collagen I in normal human dermal fibroblasts (NHDF); assay: Total Collagen I expression in fibroblasts (immunofluorescence, INCell Analyzer 1000); details: for % Control (total Collagen I) / % Stimulation (total Collagen I) / Mean Collagen I (AU): 72 hours; for Mean Collagen I (AU): AU = fluorescence intensity/number of cells
Experimental: (§1) It is believed that the glycyrrhetinimidyl hydroxyproline alkyl esters of the present invention are useful for promoting collagen production in human skin. In an exemplary test, normal human dermal fibroblasts (NHDF) were cultured in culture medium for 24 hours. The medium was then replaced with culture medium containing or not (control) the test compound or the reference compound (Vitamin C) or the reference mix (Vitamin C and TGF-β). The cells were then incubated for 72 hours. After incubation, the culture medium was then collected and the cells were washed and fixed. Cells were then labeled with a primary antibody (anti-collagen I or anti-collagen III). […] An INCell Analyzer 1000 was used to take images of each well. The labeling was quantified by the measurement of the fluorescence intensity or fluorescence area normalized to the total number of cells.

[2] = tested on: collagen III in normal human dermal fibroblasts (NHDF); assay: Total Collagen III expression in fibroblasts (immunofluorescence, INCell Analyzer 1000); details: for % Control (total Collagen III) / % Stimulation (total Collagen III) / Mean Collagen III (AU): 72 hours
Experimental: as §1

[3] = tested on: extracellular collagen I in normal human dermal fibroblasts (NHDF); assay: Extracellular Collagen I expression in fibroblasts (fiber deposition); details: for % Control (extracellular Collagen I) / % Stimulation (extracellular Collagen I) / Mean Collagen I (fibers): 72 hours
Experimental: as §1
(§2) A collagen release promoter, such as Vitamin C, could be used to release the intracellular collagen into the extracellular matrix. Note that in Tables 3 and 4 below, the apparent inhibition of glycyrrhetinimidyl hydroxyproline methyl ester on extracellular collagen fiber deposition is due to an artifact effect.

[4] = tested on: extracellular collagen III in normal human dermal fibroblasts (NHDF); assay: Extracellular Collagen III expression in fibroblasts (fiber deposition); details: for % Control (extracellular Collagen III) / % Stimulation (extracellular Collagen III) / Mean Collagen III (fibers): 72 hours
Experimental: as §1, §2

[5] = 10 μM, apparent inhibition said to be an artifact
[6] = 30 μM, apparent inhibition said to be an artifact
[7] = qualitative analysis of the images

Substance: glycyrrhetinimidyl hydroxyproline methyl ester
- % Control (total Collagen I) ([1]; 3.3 μM): 102%
- % Stimulation (total Collagen I) ([1]; 3.3 μM): 2%
- Mean Collagen I (AU) ([1]; 3.3 μM): 222721 AU
- % Control (total Collagen I) ([1]; 10 μM): 97%
- % Stimulation (total Collagen I) ([1]; 10 μM): −3%
- Mean Collagen I (AU) ([1]; 10 μM): 210888 AU
- % Control (total Collagen I) ([1]; 30 μM): 126%
- % Stimulation (total Collagen I) ([1]; 30 μM): 26%
- Mean Collagen I (AU) ([1]; 30 μM): 274297 AU
- increase of the NHDF's neosynthesis of collagen I ([1]; maximum over tested concentrations (text summary of Table 1)): up to 26%
- % Control (total Collagen III) ([2]; 3.3 μM): 105%
- % Stimulation (total Collagen III) ([2]; 3.3 μM): 5%
- Mean Collagen III (AU) ([2]; 3.3 μM): 177399 AU
- % Control (total Collagen III) ([2]; 10 μM): 118%
- % Stimulation (total Collagen III) ([2]; 10 μM): 18%
- Mean Collagen III (AU) ([2]; 10 μM): 199984 AU
- % Control (total Collagen III) ([2]; 30 μM): 142%
- % Stimulation (total Collagen III) ([2]; 30 μM): 42%
- Mean Collagen III (AU) ([2]; 30 μM): 240374 AU
- increase of the NHDF's neosynthesis of collagen III ([2]; maximum over tested concentrations (text summary of Table 2)): up to 42%
- % Control (extracellular Collagen I) ([3]; 3.3 μM): 102%
- % Stimulation (extracellular Collagen I) ([3]; 3.3 μM): 2%
- Mean Collagen I (fibers) ([3]; 3.3 μM): 63 fibers
- % Control (extracellular Collagen I) [3, 5]: 79%
- % Stimulation (extracellular Collagen I) [3, 5]: −21%
- Mean Collagen I (fibers) [3, 5]: 48 fibers
- % Control (extracellular Collagen I) [3, 6]: 70%
- % Stimulation (extracellular Collagen I) [3, 6]: −30%
- Mean Collagen I (fibers) [3, 6]: 43 fibers
- effect on collagen I extracellular fiber deposition [3, 7]: no significant effect
- extracellular release of collagen I ([3]; summary of Table 3): no significant increase
- % Control (extracellular Collagen III) ([4]; 3.3 μM): 105%
- % Stimulation (extracellular Collagen III) ([4]; 3.3 μM): 5%
- Mean Collagen III (fibers) ([4]; 3.3 μM): 34 fibers
- % Control (extracellular Collagen III) ([4]; 10 μM): 107%
- % Stimulation (extracellular Collagen III) ([4]; 10 μM): 7%
- Mean Collagen III (fibers) ([4]; 10 μM): 34 fibers
- % Control (extracellular Collagen III) [4, 6]: 78%
- % Stimulation (extracellular Collagen III) [4, 6]: −22%
- Mean Collagen III (fibers) [4, 6]: 25 fibers
- effect on collagen III extracellular fiber deposition [4, 7]: no significant effect
- extracellular release of collagen III ([4]; text summary of Table 4): no significant increase
